Converted amounts (≈) assume the structure as drawn. “Also recorded” adds a separate entry of the source. Each block holds one compound with its values, some of them ahead of it.
How the values were obtained:
[1] = Apparent solubility study in pH buffers (50 mM), 25° C., 24 hours, HPLC; assay type: physicochemical; conditions: for Final pH: after 24 hours; for Solubility: 25° C.; for Solubility compared with Form A: pH7 and pH9
Protocol: Apparent solubility was determined by suspending 5 mg of compound (I) in different bio-relevant media including pH buffers (50 mM). The suspensions were equilibrated at 25° C. for 24 hours. The suspensions were then filtered through a 0.22 μm PVDF filter into a 2-mL HPLC vial. The quantification of the filtrate was conducted by HPLC with reference to a standard solution.

[2] = Apparent solubility in purified water, 25° C., 24 hours, HPLC, residue by XRPD; assay type: physicochemical; conditions: for Solubility / Final pH / XRPD of residue: purified water; for Solubility: 25° C., 24 hours; for Final pH / XRPD of residue: after 24 hours
Protocol: Apparent solubility in water was determined by suspending 5 mg of compound (I) in purified water. The suspensions were equilibrated at 25° C. for 24 hours. The suspensions were then filtered through a 0.22 μm PVDF filter into a 2-mL HPLC vial. The quantitation of the filtrate was conducted by HPLC with reference to a standard solution. The solids were analyzed by XRPD.

[3] = Physical stability of solid forms (general statements, accelerated and long term stability testing); assay type: physicochemical; conditions: conditions not stated
Excerpt: Developing novel forms of compound (I) with good processability or acceptable aqueous solubility is one of the objectives of current invention. Some novel solid forms enhance the developability of compound (I) fundamentally. The physical stability of drug substances is an integral part of the systematic approach to the stability evaluation of pharmaceuticals due to its potential impacts on drug chemical stability performance and safety. The greater the stability is, the longer the shelf life could be. Therefore, the accelerated and long term stability testing used in this invention could be used to predict shelf lives.

[4] = Stability of solid forms, stability chamber 40° C. and 75%-RH, XRPD after 1 month; assay type: physicochemical; conditions: 40° C./75%-RH
Protocol: 40 mg of compound (I) in different solid forms were stored in a stability chamber with temperature and humidity controlled at 40° C. and 75%-RH, respectively. After 1 month, the samples were analyzed by XRPD to check their solid form and compared with their initial solid form.

[5] = Stability of solid forms, stability chamber 25° C. and 60%-RH, XRPD after 1 month; assay type: physicochemical; conditions: 25° C./60%-RH
Protocol: 20 mg of compound (I) in different solid forms were stored in a stability chamber with temperature and humidity controlled at 25° C. and 60%-RH. After 1 month, the samples were analyzed by XRPD to check their solid form and compared with their initial solid form.

In vivo PK study = experiment: In vivo PK study
Excerpt: (§1) Therefore, sodium salt Form J is suitable to be formulated as sustained-release oral formulation. […] Therefore, sodium salt Form J could be developed as enteric release formulations to avoid conversion in SGF and achieve higher solubility in intestinal environment for better absorption.

[6] = Conversion of solid form in SGF; assay type: physicochemical
Excerpt: as §1

[7] = Apparent solubility in FaSSIF over time; assay type: physicochemical
Excerpt: as §1

[8] = listed as Example 3, Form A of compound (I)
[9] = listed as Example 1, Form D of compound (I)
[10] = listed as Example 16, Form H of compound (I)

solubility at 24 h ([1]; pH 1 buffer (50 mM), 25 °C, pH 1, aqueous buffer, thermodynamic from solid, pH 1 buffer, 24 hours): 940 µg/mL (≈ 1570 µM) | Final pH ([1]; pH 1 buffer, listed as Example 3, Form A of compound (I)): 1.05 | Solubility ([1]; pH 3 buffer, 24 hours, listed as Example 3, Form A of compound (I)): 66 µg/mL (≈ 110 µM) | Final pH ([1]; pH 3 buffer, listed as Example 3, Form A of compound (I)): 2.97 | Solubility ([1]; pH 5 buffer, 24 hours, listed as Example 3, Form A of compound (I)): 4 µg/mL (≈ 6.68 µM) | Final pH ([1]; pH 5 buffer, listed as Example 3, Form A of compound (I)): 4.99 | Solubility ([1]; pH 7 buffer, 24 hours, listed as Example 3, Form A of compound (I)): 72 µg/mL (≈ 120 µM) | Final pH ([1]; pH 7 buffer, listed as Example 3, Form A of compound (I)): 6.98 | Solubility ([1]; pH 9 buffer, 24 hours, listed as Example 3, Form A of compound (I)): 4820 µg/mL (≈ 8050 µM) | Final pH ([1]; pH 9 buffer, listed as Example 3, Form A of compound (I)): 8.46 | Solubility [2, 8]: 50 µg/mL (≈ 83.5 µM) | Final pH [2, 8]: 6.97 | XRPD of residue [2, 8]: Form A
Structure (SMILES): CCOC(=O)C1=C(CN2CCN3C(=O)N(CC(C)(C)C(=O)O)C[C@@H]3C2)NC(c2nccs2)=N[C@H]1c1cccc(F)c1C [Form A, 3-[(8aS)-7-[[(4S)-5-ethoxycarbonyl-4-(3-fluoro-2-methyl-phenyl)-2-thiazol-2-yl-1,4-dihydropyrimidin-6-yl]methyl]-3-oxo-5,6,8,8a-tetrahydro-1H-imidazo[1,5-a]pyrazin-2-yl]-2,2-dimethyl-propanoic acid]

Structure (SMILES): CCOC(=O)C1=C(CN2CCN3C(=O)N(CC(C)(C)C(=O)O)C[C@@H]3C2)NC(c2nccs2)=N[C@H]1c1cccc(F)c1C [Form Amorphous, 3-[(8aS)-7-[[(4S)-5-ethoxycarbonyl-4-(3-fluoro-2-methyl-phenyl)-2-thiazol-2-yl-1,4-dihydropyrimidin-6-yl]methyl]-3-oxo-5,6,8,8a-tetrahydro-1H-imidazo[1,5-a]pyrazin-2-yl]-2,2-dimethyl-propanoic acid]
Physical / solid state stability [3]: significantly improved stability compared with Form D

Physical stability (solid form by XRPD) [4, 9]: solid form change | Physical stability (solid form by XRPD) [5, 9]: solid form change | Physical / solid state stability [3]: physically unstable
Structure (SMILES): CCOC(=O)C1=C(CN2CCN3C(=O)N(CC(C)(C)C(=O)O)C[C@@H]3C2)NC(c2nccs2)=N[C@H]1c1cccc(F)c1C [Form D, 3-[(8aS)-7-[[(4S)-5-ethoxycarbonyl-4-(3-fluoro-2-methyl-phenyl)-2-thiazol-2-yl-1,4-dihydropyrimidin-6-yl]methyl]-3-oxo-5,6,8,8a-tetrahydro-1H-imidazo[1,5-a]pyrazin-2-yl]-2,2-dimethyl-propanoic acid]
Solid form stability compared with Form D [4]: better solid form stability than the original Form D

Physical stability (solid form by XRPD) [5, 10]: no solid form change | Solubility ([1]; pH 1 buffer, 24 hours, listed as Example 16, Form H of compound (I)): 1581 µg/mL (≈ 2640 µM) | Final pH ([1]; pH 1 buffer, listed as Example 16, Form H of compound (I)): 1.08 | Solubility ([1]; pH 3 buffer, 24 hours, listed as Example 16, Form H of compound (I)): 56 µg/mL (≈ 93.5 µM) | Final pH ([1]; pH 3 buffer, listed as Example 16, Form H of compound (I)): 3.01 | Solubility ([1]; pH 5 buffer, 24 hours, listed as Example 16, Form H of compound (I)): 6 µg/mL (≈ 10 µM) | Final pH ([1]; pH 5 buffer, listed as Example 16, Form H of compound (I)): 5.03 | Solubility ([1]; pH 7 buffer, 24 hours, listed as Example 16, Form H of compound (I)): 244 µg/mL (≈ 408 µM) | Final pH ([1]; pH 7 buffer, listed as Example 16, Form H of compound (I)): 6.97 | Solubility ([1]; pH 9 buffer, 24 hours, listed as Example 16, Form H of compound (I)): >10000 µg/mL | Final pH ([1]; pH 9 buffer, listed as Example 16, Form H of compound (I)): 8.90 | Solubility [2, 10]: 453 µg/mL (≈ 757 µM) | Final pH [2, 10]: 7.35 | XRPD of residue [2, 10]: Form H
Structure (SMILES): CCOC(=O)C1=C(CN2CCN3C(=O)N(CC(C)(C)C(=O)O)C[C@@H]3C2)NC(c2nccs2)=N[C@H]1c1cccc(F)c1C [Form H, 3-[(8aS)-7-[[(4S)-5-ethoxycarbonyl-4-(3-fluoro-2-methyl-phenyl)-2-thiazol-2-yl-1,4-dihydropyrimidin-6-yl]methyl]-3-oxo-5,6,8,8a-tetrahydro-1H-imidazo[1,5-a]pyrazin-2-yl]-2,2-dimethyl-propanoic acid]
Stability compared with Form D [5]: better stability than the original Form D | Solubility compared with Form A [1]: higher solubility than Form A at pH7 and pH9 | Water solubility compared with Form A ([2]; water): unexpected higher water solubility than Form A; also recorded: significant higher water solubility than the anhydrate Form A | Physical / solid state stability [3]: improved stability compared with Form D; also recorded: acceptable solid state stability

Physical stability (solid form by XRPD) ([4]; listed as Example 15, sodium salt Form J of compound (I)): no solid form change | Solubility ([1]; pH 1 buffer, 24 hours, listed as Example 15, sodium salt Form J of compound (I)): 1510 µg/mL | Final pH ([1]; pH 1 buffer, listed as Example 15, sodium salt Form J of compound (I)): 1.12 | Solubility ([1]; pH 3 buffer, 24 hours, listed as Example 15, sodium salt Form J of compound (I)): 16 µg/mL | Final pH ([1]; pH 3 buffer, listed as Example 15, sodium salt Form J of compound (I)): 3.53 | Solubility ([1]; pH 5 buffer, 24 hours, listed as Example 15, sodium salt Form J of compound (I)): 2.8 µg/mL | Final pH ([1]; pH 5 buffer, listed as Example 15, sodium salt Form J of compound (I)): 5.22 | Solubility ([1]; pH 7 buffer, 24 hours, listed as Example 15, sodium salt Form J of compound (I)): 690 µg/mL | Final pH ([1]; pH 7 buffer, listed as Example 15, sodium salt Form J of compound (I)): 7.34 | Solubility ([1]; pH 9 buffer, 24 hours, listed as Example 15, sodium salt Form J of compound (I)): >10000 µg/mL | Final pH ([1]; pH 9 buffer, listed as Example 15, sodium salt Form J of compound (I)): 8.80 | Solid form conversion [6]: converted to HCl salt immediately | Apparent solubility in FaSSIF [7]: increased with time | Physical / solid state stability ([3]; listed as sodium salt Form J): improved stability compared with Form D
Structure (SMILES): CCOC(=O)C1=C(CN2CCN3C(=O)N(CC(C)(C)C(=O)O)C[C@@H]3C2)NC(c2nccs2)=N[C@H]1c1cccc(F)c1C [Form J, 3-[(8aS)-7-[[(4S)-5-ethoxycarbonyl-4-(3-fluoro-2-methyl-phenyl)-2-thiazol-2-yl-1,4-dihydropyrimidin-6-yl]methyl]-3-oxo-5,6,8,8a-tetrahydro-1H-imidazo[1,5-a]pyrazin-2-yl]-2,2-dimethyl-propanoic acid]
Solid form stability compared with Form D [4]: better solid form stability than the original Form D | Solubility compared with other crystal forms of the parent compound (I) [1]: improved solubility compared with some of other crystal forms | Solubility compared with Form A [1]: higher solubility than Form A at pH7 and pH9 | Absorption rate to reach Cmax (In vivo PK study): much slower absorption rate to reach Cmax

Solubility ([1]; pH 1 buffer, 24 hours, listed as Example 24, potassium salt Form Q of compound (I)): 1560 µg/mL | Final pH ([1]; pH 1 buffer, listed as Example 24, potassium salt Form Q of compound (I)): 1.1 | Final pH ([1]; pH 3 buffer, listed as Example 24, potassium salt Form Q of compound (I)): 3.49 | Final pH ([1]; pH 5 buffer, listed as Example 24, potassium salt Form Q of compound (I)): 5.17 | Solubility ([1]; pH 7 buffer, 24 hours, listed as Example 24, potassium salt Form Q of compound (I)): 3580 µg/mL | Final pH ([1]; pH 7 buffer, listed as Example 24, potassium salt Form Q of compound (I)): 6.97 | Solubility ([1]; pH 9 buffer, 24 hours, listed as Example 24, potassium salt Form Q of compound (I)): >10000 µg/mL | Final pH ([1]; pH 9 buffer, listed as Example 24, potassium salt Form Q of compound (I)): 8.71
Structure (SMILES): CCOC(=O)C1=C(CN2CCN3C(=O)N(CC(C)(C)C(=O)O)C[C@@H]3C2)NC(c2nccs2)=N[C@H]1c1cccc(F)c1C [Form Q, 3-[(8aS)-7-[[(4S)-5-ethoxycarbonyl-4-(3-fluoro-2-methyl-phenyl)-2-thiazol-2-yl-1,4-dihydropyrimidin-6-yl]methyl]-3-oxo-5,6,8,8a-tetrahydro-1H-imidazo[1,5-a]pyrazin-2-yl]-2,2-dimethyl-propanoic acid]

— US12655153B2, “Solid forms of a HBV core protein allosteric modifier” (Hoffmann-La Roche Inc., priority 2019, dated 2026)
